Assay results: ChEMBL document CHEMBL4325853, “Design, synthesis and antibacterial evaluation of 2,4-disubstituted-6-thiophenyl-pyrimidines” (Eur J Med Chem, 2019)
Converted amounts (≈) assume the structure as drawn.

What was measured:
Assay type in all cases: functional
Staphylococcus aureus [1] = assay: Antibacterial activity against methicillin-resistant Staphylococcus aureus isolate 7864 after 18 hrs by broth microdilution method; conditions: isolate 7864, 18 h
Staphylococcus aureus [2] = assay: Antibacterial activity against methicillin-resistant Staphylococcus aureus ATCC 33592 after 18 hrs by broth microdilution method; conditions: ATCC 33592, 18 h
Enterococcus faecium [3] = assay: Antibacterial activity against Enterococcus faecium ATCC 49624 after 18 hrs by broth microdilution method; conditions: ATCC 49624, 18 h
Staphylococcus aureus [4] = assay: Antibacterial activity against methicillin-resistant Staphylococcus aureus isolate 7947 after 18 hrs by broth microdilution method; conditions: isolate 7947, 18 h
Staphylococcus aureus [5] = assay: Potency index, ratio of methicillin MIC to test compound MIC for methicillin-resistant Staphylococcus aureus ATCC 33592
Staphylococcus aureus [6] = assay: Antibacterial activity against methicillin-resistant Staphylococcus aureus isolate 1708 after 18 hrs by broth microdilution method; conditions: isolate 1708, 18 h
Staphylococcus aureus [7] = assay: Antibacterial activity against methicillin-resistant Staphylococcus aureus ATCC 43300 after 18 hrs by broth microdilution method; conditions: ATCC 43300, 18 h
Staphylococcus aureus [8] = assay: Antibacterial activity against methicillin-resistant Staphylococcus aureus isolate 7943 after 18 hrs by broth microdilution method; conditions: isolate 7943, 18 h
Staphylococcus aureus [9] = assay: Antibacterial activity against methicillin-resistant Staphylococcus aureus isolate 7972 after 18 hrs by broth microdilution method; conditions: isolate 7972, 18 h
[10] = test system: Staphylococcus epidermidis; assay: Potency index, ratio of berberine MIC to test compound MIC for Staphylococcus epidermidis ATCC 12228
Enterococcus faecalis [11] = assay: Ratio of MBC to MIC for vancomycin-resistant Enterococcus faecalis ATCC 700221
Staphylococcus aureus [12] = assay: Antibacterial activity against methicillin-resistant Staphylococcus aureus isolate 1220 after 18 hrs by broth microdilution method; conditions: isolate 1220, 18 h
Staphylococcus aureus [13] = assay: Antibacterial activity against methicillin-resistant Staphylococcus aureus isolate 3123 after 18 hrs by broth microdilution method; conditions: isolate 3123, 18 h
Staphylococcus aureus [14] = assay: Antibacterial activity against methicillin-resistant Staphylococcus aureus isolate 7917 after 18 hrs by broth microdilution method; conditions: isolate 7917, 18 h
Staphylococcus aureus [15] = assay: Antibacterial activity against methicillin-resistant Staphylococcus aureus isolate 8071 after 18 hrs by broth microdilution method; conditions: isolate 8071, 18 h
Staphylococcus aureus [16] = assay: Antibacterial activity against methicillin-resistant Staphylococcus aureus isolate 4548 after 18 hrs by broth microdilution method; conditions: isolate 4548, 18 h
Staphylococcus aureus [17] = assay: Antibacterial activity against methicillin-resistant Staphylococcus aureus isolate 2491 after 18 hrs by broth microdilution method; conditions: isolate 2491, 18 h
Staphylococcus aureus [18] = assay: Antibacterial activity against methicillin-resistant Staphylococcus aureus ATCC BAA1720 after 18 hrs by broth microdilution method; conditions: ATCC BAA1720, 18 h
Staphylococcus aureus [19] = assay: Antibacterial activity against methicillin-resistant Staphylococcus aureus isolate 6515 after 18 hrs by broth microdilution method; conditions: isolate 6515, 18 h
Staphylococcus aureus [20] = assay: Antibacterial activity against methicillin-resistant Staphylococcus aureus isolate 1610 after 18 hrs by broth microdilution method; conditions: isolate 1610, 18 h
Enterococcus faecium [21] = assay: Potency index, ratio of berberine MIC to test compound MIC for Enterococcus faecium ATCC 49624
Staphylococcus aureus [22] = assay: Antibacterial activity against methicillin-resistant Staphylococcus aureus isolate 1651 after 18 hrs by broth microdilution method; conditions: isolate 1651, 18 h
Staphylococcus aureus [23] = assay: Antibacterial activity against methicillin-resistant Staphylococcus aureus isolate 7587 after 18 hrs by broth microdilution method; conditions: isolate 7587, 18 h
Staphylococcus aureus [24] = assay: Antibacterial activity against methicillin-resistant Staphylococcus aureus isolate 7449 after 18 hrs by broth microdilution method; conditions: isolate 7449, 18 h
Staphylococcus aureus [25] = assay: Antibacterial activity against methicillin-resistant Staphylococcus aureus isolate 5035 after 18 hrs by broth microdilution method; conditions: isolate 5035, 18 h
Staphylococcus aureus [26] = assay: Potency index, ratio of methicillin MIC to test compound MIC for methicillin-resistant Staphylococcus aureus ATCC BAA1720
Staphylococcus aureus [27] = assay: Antibacterial activity against methicillin-resistant Staphylococcus aureus isolate 2671 after 18 hrs by broth microdilution method; conditions: isolate 2671, 18 h
Staphylococcus aureus [28] = assay: Antibacterial activity against methicillin-resistant Staphylococcus aureus isolate 4127 after 18 hrs by broth microdilution method; conditions: isolate 4127, 18 h
Staphylococcus aureus [29] = assay: Antibacterial activity against methicillin-resistant Staphylococcus aureus isolate 5056 after 18 hrs by broth microdilution method; conditions: isolate 5056, 18 h
Staphylococcus aureus [30] = assay: Antibacterial activity against methicillin-resistant Staphylococcus aureus isolate 7916 after 18 hrs by broth microdilution method; conditions: isolate 7916, 18 h
Staphylococcus aureus [31] = assay: Antibacterial activity against methicillin-resistant Staphylococcus aureus isolate 7664 after 18 hrs by broth microdilution method; conditions: isolate 7664, 18 h
Staphylococcus aureus [32] = assay: Potency index, ratio of berberine MIC to test compound MIC for Staphylococcus aureus ATCC 29213
Staphylococcus aureus [33] = assay: Antibacterial activity against methicillin-resistant Staphylococcus aureus isolate 7247 after 18 hrs by broth microdilution method; conditions: isolate 7247, 18 h
Staphylococcus aureus [34] = assay: Antibacterial activity against methicillin-resistant Staphylococcus aureus isolate 7844 after 18 hrs by broth microdilution method; conditions: isolate 7844, 18 h
Staphylococcus aureus [35] = assay: Antibacterial activity against methicillin-resistant Staphylococcus aureus isolate 1947 after 18 hrs by broth microdilution method; conditions: isolate 1947, 18 h
Staphylococcus aureus [36] = assay: Antibacterial activity against methicillin-resistant Staphylococcus aureus isolate 7807 after 18 hrs by broth microdilution method; conditions: isolate 7807, 18 h
Staphylococcus aureus [37] = assay: Antibacterial activity against methicillin-resistant Staphylococcus aureus isolate 7682 after 18 hrs by broth microdilution method; conditions: isolate 7682, 18 h
Staphylococcus aureus [38] = assay: Potency index, ratio of methicillin MIC to test compound MIC for methicillin-resistant Staphylococcus aureus ATCC 33591
Staphylococcus aureus [39] = assay: Antibacterial activity against methicillin-resistant Staphylococcus aureus isolate 2931 after 18 hrs by broth microdilution method; conditions: isolate 2931, 18 h
Staphylococcus aureus [40] = assay: Potency index, ratio of methicillin MIC to test compound MIC for methicillin-resistant Staphylococcus aureus ATCC BAA41
Staphylococcus aureus [41] = assay: Antibacterial activity against methicillin-resistant Staphylococcus aureus isolate 3096 after 18 hrs by broth microdilution method; conditions: isolate 3096, 18 h
Enterococcus faecalis [42] = assay: Antibacterial activity against vancomycin-resistant Enterococcus faecalis ATCC 51575 after 18 hrs by broth microdilution method; conditions: ATCC 51575, 18 h
Staphylococcus aureus [43] = assay: Antibacterial activity against methicillin-resistant Staphylococcus aureus isolate 6334 after 18 hrs by broth microdilution method; conditions: isolate 6334, 18 h
Enterococcus faecalis [44] = assay: Antibacterial activity against Enterococcus faecalis ATCC 29212 after 18 hrs by broth microdilution method; conditions: ATCC 29212, 18 h
Staphylococcus aureus [45] = assay: Antibacterial activity against methicillin-resistant Staphylococcus aureus isolate 7971 after 18 hrs by broth microdilution method; conditions: isolate 7971, 18 h
Staphylococcus aureus [46] = assay: Antibacterial activity against methicillin-resistant Staphylococcus aureus isolate 4955 after 18 hrs by broth microdilution method; conditions: isolate 4955, 18 h
Staphylococcus aureus [47] = assay: Bactericidal activity against methicillin-resistant Staphylococcus aureus ATCC BAA41 after 18 hrs by broth microdilution method; conditions: ATCC BAA41, 18 h

CC(C)(C)c1ccc(CN2CCCN(CCc3cc(-c4cccs4)nc(-c4ccncc4)n3)CC2)cc1
MIC90 (Staphylococcus aureus [1]): 2 µg/mL (≈ 3.91 µM) | MIC90 (Staphylococcus aureus [2]): 2 µg/mL (≈ 3.91 µM) | MIC90 (Enterococcus faecium [3]): 4 µg/mL (≈ 7.82 µM) | MIC90 (Staphylococcus aureus [4]): 2 µg/mL (≈ 3.91 µM) | Ratio (Staphylococcus aureus [5]): >100 | MIC90 (Staphylococcus aureus [6]): 4 µg/mL (≈ 7.82 µM) | MIC90 (Staphylococcus aureus [7]): 2 µg/mL (≈ 3.91 µM) | MIC90 (Staphylococcus aureus [8]): 2 µg/mL (≈ 3.91 µM) | MIC90 (Staphylococcus aureus [9]): 2 µg/mL (≈ 3.91 µM) | Ratio [10]: 50 - 100 | Ratio (Enterococcus faecalis [11]): 1 | MIC90 (Staphylococcus aureus [12]): 2 µg/mL (≈ 3.91 µM) | MIC90 (Staphylococcus aureus [13]): 2 µg/mL (≈ 3.91 µM) | MIC90 (Staphylococcus aureus [14]): 2 µg/mL (≈ 3.91 µM) | MIC90 (Staphylococcus aureus [15]): 2 µg/mL (≈ 3.91 µM) | MIC90 (Staphylococcus aureus [16]): 2 µg/mL (≈ 3.91 µM) | MIC90 (Staphylococcus aureus [17]): 4 µg/mL (≈ 7.82 µM) | MIC90 (Staphylococcus aureus [18]): 2 µg/mL (≈ 3.91 µM) | MIC90 (Staphylococcus aureus [19]): 4 µg/mL (≈ 7.82 µM) | MIC90 (Staphylococcus aureus [20]): 4 µg/mL (≈ 7.82 µM) | Ratio (Enterococcus faecium [21]): 50 - 100 | MIC90 (Staphylococcus aureus [22]): 2 µg/mL (≈ 3.91 µM) | MIC90 (Staphylococcus aureus [23]): 2 µg/mL (≈ 3.91 µM) | MIC90 (Staphylococcus aureus [24]): 2 µg/mL (≈ 3.91 µM) | MIC90 (Staphylococcus aureus [25]): 2 µg/mL (≈ 3.91 µM) | Ratio (Staphylococcus aureus [26]): >100 | MIC90 (Staphylococcus aureus [27]): 2 µg/mL (≈ 3.91 µM) | MIC90 (Staphylococcus aureus [28]): 2 µg/mL (≈ 3.91 µM) | MIC90 (Staphylococcus aureus [29]): 2 µg/mL (≈ 3.91 µM) | MIC90 (Staphylococcus aureus [30]): 2 µg/mL (≈ 3.91 µM) | MIC90 (Staphylococcus aureus [31]): 2 µg/mL (≈ 3.91 µM) | Ratio (Staphylococcus aureus [32]): 50 - 100 | MIC90 (Staphylococcus aureus [33]): 2 µg/mL (≈ 3.91 µM) | MIC90 (Staphylococcus aureus [34]): 2 µg/mL (≈ 3.91 µM) | MIC90 (Staphylococcus aureus [35]): 2 µg/mL (≈ 3.91 µM) | MIC90 (Staphylococcus aureus [36]): 2 µg/mL (≈ 3.91 µM) | MIC90 (Staphylococcus aureus [37]): 4 µg/mL (≈ 7.82 µM) | Ratio (Staphylococcus aureus [38]): >100 | MIC90 (Staphylococcus aureus [39]): 2 µg/mL (≈ 3.91 µM) | Ratio (Staphylococcus aureus [40]): >100 | MIC90 (Staphylococcus aureus [41]): 2 µg/mL (≈ 3.91 µM) | MIC90 (Enterococcus faecalis [42]): 4 µg/mL (≈ 7.82 µM) | MIC90 (Staphylococcus aureus [43]): 2 µg/mL (≈ 3.91 µM) | MIC90 (Enterococcus faecalis [44]): 2 µg/mL (≈ 3.91 µM) | MIC90 (Staphylococcus aureus [45]): 2 µg/mL (≈ 3.91 µM) | MIC90 (Staphylococcus aureus [46]): 2 µg/mL (≈ 3.91 µM) | MBC (Staphylococcus aureus [47]): 2 µg/mL (≈ 3.91 µM)
